According to US5106407A, “Iodones and methods for antimicrobial use” (priority 1989, dated 1992):
Values after ≈ are worked out from the molar mass of the structure shown.

How the values were obtained:
Aspergillus niger = experiment: minimum inhibitory concentration (MIC), agar dilution; assay type: cell-based; conditions: ATCC 16404; malt yeast agar
Procedure: (§1) The minimum inhibitory concentration (MIC) for the compound of Example 19, i.e., (2-nitrophenyl)-iodonium 2,2-dimethyl-4,6-dioxo-1,3-dioxan-5-ylide was determined for 9 bacteria (using nutrient agar) and 5 yeast and fungi (using malt yeast agar). A one percent solution of this test compound (i.e., the compound of Example 19) was prepared in a mixture of acetone-water. Nutrient agar was prepared at pH 6.8 using deionized water according to standard Difco procedures. Malt yeast agar was prepared by adding 3 g Bacto yeast extract and 42 g Bacto Malt agar per liter of deionized water. The agar (nutrient agar when testing with bacteria and malt yeast agar when testing with yeast and fungi) was dispensed in 30 mL aliquots into 25×200 millimeter (mm) test tubes, capped and autoclaved for 15 min at 115° C. The test tubes containing the agar were cooled in a water bath until the temperature of the agar was 48° C. and then an appropriate amount of the one percent solution of the test compound was added (except in the controls where no test compound was added with the acetone-water) to the respective test tubes so that final concentrations of 500, 250, 100, 50, 25, 10, 5, 2.5, 1.0 and 0 parts per million (ppm) of the test compound in the agar were obtained. The agar solutions were each mixed and poured into individual petri plates so that each petri plate contained agar having a known concentration of test compound dispersed therein. After drying for 24 hr, the petri plates were inoculated with bacteria when the petri plates contained nutrient broth agar or with fungi and yeast when the petri plates contained malt yeast agar.
(§2) The petri plates were incubated at 30° C. for 48 hr and then read to determine if the test compound (i.e., the compound of Example 19) which was incorporated into the agar prevented growth of the respective bacteria. The minimum inhibitory concentration (MIC) for each bacteria was defined as the lowest concentration of the test compound which prevented growth of that bacteria.
(§3) The inoculation with the fungi and yeast was accomplished as follows. Cultures of fungi and yeast were incubated for 7 days on malt yeast agar at 30° C. These cultures were used to prepare suspensions by the following procedure. A suspension of each organism was prepared by adding 10 mL of sterile saline and 10 microliters […] of Triton ×100 to the slant. The sterile saline/Triton ×100 solution was then agitated with a sterile swab to suspend the microorganism grown on the slant. Each resulting suspension was diluted into sterile saline (1 part suspension: 9 parts sterile saline). […] The petri plates were incubated at 30° C. and read after 48 hr for yeast and 72 hr for fungi.

Candida albicans = experiment: as above; assay type: cell-based; conditions: ATCC 10231; malt yeast agar
Procedure: as §1, §2, §3

Penicillium chrysogenum = experiment: as above; assay type: cell-based; conditions: ATCC 9480; malt yeast agar
Procedure: as §1, §2, §3

Trichoderma viride = experiment: as above; assay type: cell-based; conditions: ATCC 8678; malt yeast agar
Procedure: as §1, §2, §3

[1] = system: mixture of bacterial organisms listed in Table 1; experiment: latex preservation test
Procedure: The latex was a vinylidene chloride-butadiene copolymer with a pH of 6.1.
Fifty gram aliquots of the latex were placed in sterile bottles and one hundred gram aliquots of the diluted cutting oil were placed in 250-mL Erlenmeyer flasks. An appropriate amount of a fresh 1 percent stock solution of (2-nitrophenyl)-iodonium 2,2-dimethyl-4,6-dioxo-1,3-dioxan-5-ylide in acetone-water was added to achieve the desired final concentrations (see Tables 5 and 6). A small portion of the respective latex or cutting oil preparation was then streaked onto Tryptic Soy Agar (TSA) petri plates using sterile cotton swabs to determine whether the preparations were sterile. If the particular preparation was sterile, it was then inoculated with an appropriate volume (0.1 mL for the latex and 0.2 mL for the cutting oil) of a mixture of equal aliquots of 24 hr cultures of each of the bacterial organisms listed in Table 1 (not the fungi and yeast). The latex samples were incubated at 30° C. and the cutting oils were agitated on a rotary shaker at room temperature. After 24 hr, all samples were again streaked on TSA. All plates were then incubated at 30° C. for 48 hr and then rated 1 to 10 according to the growth rating system described in Table 4.
The results from this first set of streaks after inoculation are listed in the columns labeled streak number 1 in Tables 5 and 6. Samples with a rating of 3 or less from streak number 1 were reinoculated as described for the first inoculation above. Samples with a rating of 4 or greater were not reinoculated. After another 24 hr all samples were again restreaked on TSA agar. The results from these second streaks were labeled streak number 2 in Tables 5 and 6. Samples were reinoculated and restreaked in this fashion for a maximum of 10 streaks. Any samples with two streaks in a row with a ten rating were not restreaked again.

CC1(C)OC(=O)[C-]([I+]c2ccccc2[N+](=O)[O-])C(=O)O1 [Example 19, (2-Nitrophenyl)-iodonium 2,2-dimethyl-4,6-dioxo-1,3-dioxan-5-ylide]
MIC (Aspergillus niger): 250 µg/mL (≈ 639 µM) | MIC (Candida albicans): 100 µg/mL (≈ 256 µM) | MIC (Penicillium chrysogenum): 100 µg/mL (≈ 256 µM) | MIC (Trichoderma viride): 250 µg/mL (≈ 639 µM) | growth rating ([1]; 25 ppm, streak 1): 1 (0) | growth rating ([1]; 25 ppm, streak 2): 9 | growth rating ([1]; 25 ppm, streak 3): 1 (0) | growth rating ([1]; 25 ppm, streak 4): 1 (0) | growth rating ([1]; 25 ppm, streak 5): 1 (0) | growth rating ([1]; 25 ppm, streak 6): 1 (0) | growth rating ([1]; 25 ppm, streak 7): 1 (0) | growth rating ([1]; 25 ppm, streak 8): 1 (0) | growth rating ([1]; 50 ppm, streak 1): 1 (0) | growth rating ([1]; 50 ppm, streak 3): 1 (0) | growth rating ([1]; 50 ppm, streak 4): 1 (0) | growth rating ([1]; 50 ppm, streak 5): 1 (0) | growth rating ([1]; 50 ppm, streak 6): 1 (0) | growth rating ([1]; 50 ppm, streak 7): 1 (0) | growth rating ([1]; 50 ppm, streak 8): 1 (0) | growth rating ([1]; 50 ppm, streak 9): 1 (0) | growth rating ([1]; 50 ppm, streak 10): 1 (0) | growth rating ([1]; 100 ppm, streak 1): 1 (0) | growth rating ([1]; 100 ppm, streak 3): 1 (0) | growth rating ([1]; 100 ppm, streak 4): 1 (0) | growth rating ([1]; 100 ppm, streak 5): 1 (0) | growth rating ([1]; 100 ppm, streak 6): 1 (0) | growth rating ([1]; 100 ppm, streak 7): 1 (0) | growth rating ([1]; 100 ppm, streak 8): 1 (0) | growth rating ([1]; 100 ppm, streak 9): 1 (0) | growth rating ([1]; 100 ppm, streak 10): 1 (0) | growth rating ([1]; 250 ppm, streak 1): 1 (0) | growth rating ([1]; 250 ppm, streak 2): 1 (0) | growth rating ([1]; 250 ppm, streak 3): 1 (0) | growth rating ([1]; 250 ppm, streak 4): 1 (0) | growth rating ([1]; 250 ppm, streak 5): 1 (0) | growth rating ([1]; 250 ppm, streak 6): 1 (0) | growth rating ([1]; 250 ppm, streak 7): 1 (0) | growth rating ([1]; 250 ppm, streak 8): 1 (0) | growth rating ([1]; 250 ppm, streak 9): 1 (0) | growth rating ([1]; 250 ppm, streak 10): 1 (0) | growth rating ([1]; 500 ppm, streak 1): 1 (0) | growth rating ([1]; 500 ppm, streak 2): 1 (0) | growth rating ([1]; 500 ppm, streak 3): 1 (0) | growth rating ([1]; 500 ppm, streak 4): 1 (0) | growth rating ([1]; 500 ppm, streak 5): 1 (0) | growth rating ([1]; 500 ppm, streak 6): 1 (0) | growth rating ([1]; 500 ppm, streak 7): 1 (0) | growth rating ([1]; 500 ppm, streak 8): 1 (0) | growth rating ([1]; 500 ppm, streak 9): 1 (0) | growth rating ([1]; 500 ppm, streak 10): 1 (0) | growth rating ([1]; 1000 ppm, streak 1): 1 (0) | growth rating ([1]; 1000 ppm, streak 2): 1 (0) | growth rating ([1]; 1000 ppm, streak 3): 1 (0) | growth rating ([1]; 1000 ppm, streak 4): 1 (0) | growth rating ([1]; 1000 ppm, streak 5): 1 (0) | growth rating ([1]; 1000 ppm, streak 6): 1 (0) | growth rating ([1]; 1000 ppm, streak 7): 1 (0) | growth rating ([1]; 1000 ppm, streak 8): 1 (0) | growth rating ([1]; 1000 ppm, streak 9): 1 (0) | growth rating ([1]; 1000 ppm, streak 10): 1 (0)
